From patent publication US12290521B2, “Methods and materials for identifying and treating BET inhibitor-resistant cancers” (Mayo Foundation for Medical Education and Research, priority 2018, dated 2025)

Legend:
22Rv1 cells = assay: Cell proliferation assay (MTS) and trypan blue assay; type: cell-based, human; conditions: JQ1 0.25 μM every other day
Protocol: CellTiter 96® AQueous One Solution Cell Proliferation Assay (MTS) (Promega) was used to measure cell growth according to the manufacturer's instructions. Briefly, cells were plated in 96-well plates at a density of 2,000 cells per well. At the indicated times, 20 μL of Cell Titer 96R Aqueous One Solution Reagent was added to medium. After incubating for 1 hour at 37° C. in the cell incubator, cell growth was measured in a microplate reader at 490 nm.
Trypan blue assay was performed to measure cell growth according to the manufacturer's instructions. Briefly, cells were plated in 6-well plates at a density of about 5×10^4 to about 1×10^5 cells per well. At the indicated time points, cells were trypsinized and suspended in 1 mL 1×PBS. 100 μL cells and 100 μL trypan blue solution (Sigma-Aldrich) were mixed, and the number of viable cells was measured using the Bio-Rad automated cell counter.

BRD4 = assay: Western blot of BRD4 protein, ubiquitination and half-life in DU145 cells; type: cell-based, human; conditions: DU145 cells; JQ1, 24 hours
Protocol: Co-Immunoprecipitation (Co-IP) Cells were harvested and lysed by IP buffer (50 mM Tris-HCl, pH 7.4, 150 mM NaCl, 1% Triton X-100, 1% sodium deoxycholate and 1% protease inhibitor cocktails) on ice for more than 15 minutes. Cell lysate was centrifuged for 15 minutes at 13,000 rpm at 4° C., and the supernatant was incubated with primary antibodies and protein A/G agarose beads (Thermo Fisher Scientific) with rotating at 4° C. overnight. The next day, the pellet was washed at least six times with 1×IP buffer on ice, and then subjected to western blotting analysis. Western Blotting
Cells were harvested and lysed by IP buffer (50 mM Tris-HCl, pH 7.4, 150 mM NaCl, 1% Triton X-100, 1% sodium deoxycholate and 1% protease inhibitor cocktails) on ice for more than 15 minutes. Cell lysate was centrifuged for 15 minutes at 13,000 rpm at 4° C., and the supernatant was quantified by BCA protein quantification assay. Equal amounts of protein sample were added into 4× sample buffer and boiled for 5 minutes. The sample was subjected to SDS-PAGE analysis and transferred to nitrocellulose membrane. The membrane was blocked by 5% milk for 1 hour at room temperature and incubated with primary antibody at 4° C. overnight. The next day, the membrane was washed three times with 1×TBST and incubated with horseradish peroxidase-conjugated secondary antibodies for 1 hour at room temperature. The protein bands were visualized by SuperSignal West Pico Stable Peroxide Solution (Thermo Fisher Scientific).

Cc1sc2c(c1C)C(c1ccc(Cl)cc1)=N[C@@H](CC(=O)OC(C)(C)C)c1nnc(C)n1-2 [JQ1]
cell growth (22Rv1 cells; EV-expressing 22Rv1 cells): inhibited growth
effect on cell growth (22Rv1 cells; SPOP-F133V-expressing 22Rv1 cells): largely impeded
BRD4 polyubiquitination (BRD4): markedly inhibited
